The values below are quoted from earlier work in patent US20260001860A1, “METHODS AND COMPOSITIONS OF INHIBITING DCN1-UBC12 INTERACTION” (University of Kentucky Research Foundation, priority 2022, published 2026).

The conditions of the data set: patient population taking either proteasome inhibitor.

Regarding `CC(C)C[C@H](NC(=O)[C@H](CCc1ccccc1)NC(=O)CN1CCOCC1)C(=O)N[C@@H](Cc1ccccc1)C(=O)N[C@@H](CC(C)C)C(=O)[C@@]1(C)CO1` [carfilzomib], the “patient population exhibiting grade 3 hematologic adverse events (thrombocytopenia and neutropenia)” value is recorded as 50%; the “patients suffering grade 4 adverse events (potentially life-threatening)” value is on record as approximately 15%.
Regarding `CC(C)C[C@H](NC(=O)[C@H](Cc1ccccc1)NC(=O)c1cnccn1)B(O)O` [bortezomib], the “patient population exhibiting grade 3 hematologic adverse events (thrombocytopenia and neutropenia)” value is on record as 50%; the “patients suffering grade 4 adverse events (potentially life-threatening)” value was approximately 15%.
